Experimental data reported in ChEMBL document CHEMBL2311467, “Microwave-assisted synthesis of pyrimido[4,5-b][1,6]naphthyridin-4(3H)-ones with potential antitumor activity” (Eur J Med Chem, 2013).

What was measured:
Type in all cases: functional
BT-549 = assay: Cytotoxicity against human BT549 after 48 hrs by SRB assay; details: BT-549, 48 h
T47D = assay: Cytotoxicity against human T47D after 48 hrs by SRB assay
Hs-578T = assay: Cytotoxicity against human Hs578T after 48 hrs by SRB assay
MDA-MB-231 = assay: Cytotoxicity against human MDA-MB-231 after 48 hrs by SRB assay; details: MDA-MB-231, 48 h
DU-145 = assay: Cytotoxicity against human DU145 after 48 hrs by SRB assay; details: DU-145, 48 h
PC-3 = assay: Cytotoxicity against human PC3 after 48 hrs by SRB assay; details: PC-3, 48 h
SN12C = assay: Cytotoxicity against human SN12C after 48 hrs by SRB assay
RXF 393 = assay: Cytotoxicity against human RXF393 after 48 hrs by SRB assay; details: RXF 393, 48 h
CAKI-1 = assay: Cytotoxicity against human CAKI-1 after 48 hrs by SRB assay; details: CAKI-1, 48 h
ACHN = assay: Cytotoxicity against human ACHN after 48 hrs by SRB assay
A498 = assay: Cytotoxicity against human A498 after 48 hrs by SRB assay; details: A498, 48 h
786-0 = assay: Cytotoxicity against human 786-0 after 48 hrs by SRB assay; details: 786-0, 48 h
SK-OV-3 = assay: Cytotoxicity against human SKOV3 after 48 hrs by SRB assay; details: SK-OV-3, 48 h
NCI/ADR-RES = assay: Cytotoxicity against human NCI/ADR-RES after 48 hrs by SRB assay
OVCAR-5 = assay: Cytotoxicity against human OVCAR5 after 48 hrs by SRB assay; details: OVCAR-5, 48 h
OVCAR-4 = assay: Cytotoxicity against human OVCAR4 after 48 hrs by SRB assay; details: OVCAR-4, 48 h
OVCAR-3 = assay: Cytotoxicity against human OVCAR3 after 48 hrs by SRB assay; details: OVCAR-3, 48 h
IGROV-1 = assay: Cytotoxicity against human IGROV1 after 48 hrs by SRB assay; details: IGROV-1, 48 h
UACC-257 = assay: Cytotoxicity against human UACC257 after 48 hrs by SRB assay; details: UACC-257, 48 h
SK-MEL-5 = assay: Cytotoxicity against human SK-MEL-5 after 48 hrs by SRB assay; details: SK-MEL-5, 48 h
SK-MEL-28 = assay: Cytotoxicity against human SK-MEL-28 after 48 hrs by SRB assay; details: SK-MEL-28, 48 h
SK-MEL-2 = assay: Cytotoxicity against human SK-MEL-2 after 48 hrs by SRB assay; details: SK-MEL-2, 48 h
SF-539 = assay: Cytotoxicity against human SF539 after 48 hrs by SRB assay; details: SF-539, 48 h
SNB-19 = assay: Cytotoxicity against human SNB19 after 48 hrs by SRB assay; details: SNB-19, 48 h
SNB-75 = assay: Cytotoxicity against human SNB75 after 48 hrs by SRB assay; details: SNB-75, 48 h
SW-620 = assay: Cytotoxicity against human SW620 after 48 hrs by SRB assay; details: SW-620, 48 h
SF-268 = assay: Cytotoxicity against human SF268 after 48 hrs by SRB assay; details: SF-268, 48 h
HT-29 = assay: Cytotoxicity against human HT-29 after 48 hrs by SRB assay; details: HT-29, 48 h
KM12 = assay: Cytotoxicity against human KM12 after 48 hrs by SRB assay; details: KM12, 48 h
HCC 2998 = assay: Cytotoxicity against human HCC2998 after 48 hrs by SRB assay; details: HCC 2998, 48 h
HCT-116 = assay: Cytotoxicity against human HCT116 after 48 hrs by SRB assay; details: HCT-116, 48 h
HCT-15 = assay: Cytotoxicity against human HCT15 after 48 hrs by SRB assay; details: HCT-15, 48 h
NCI-H522 = assay: Cytotoxicity against human NCI-H522 after 48 hrs by SRB assay; details: NCI-H522, 48 h
COLO 205 = assay: Cytotoxicity against human COLO205 after 48 hrs by SRB assay; details: COLO 205, 48 h
NCI-H460 = assay: Cytotoxicity against human NCI-H460 after 48 hrs by SRB assay; details: NCI-H460, 48 h
NCI-H226 = assay: Cytotoxicity against human NCI-H226 after 48 hrs by SRB assay; details: NCI-H226, 48 h
HOP-92 = assay: Cytotoxicity against human HOP92 after 48 hrs by SRB assay; details: HOP-92, 48 h
[1] = Cytotoxicity against human EKVX after 48 hrs by SRB assay
HOP-62 = assay: Cytotoxicity against human HOP62 after 48 hrs by SRB assay; details: HOP-62, 48 h
SR = assay: Cytotoxicity against human SR after 48 hrs by SRB assay
A549 = assay: Cytotoxicity against human A549 after 48 hrs by SRB assay; details: A549, 48 h
[2] = Cytotoxicity against human HL-60(TB) after 48 hrs by SRB assay; details: HL-60, 48 h
[3] = read-out: LC50 (the source's name)

With COc1cc(/C=C2\CN(C)CC3=C2Nc2nc(SC)[nH]c(=O)c2C3c2cc(OC)c(OC)c(OC)c2)cc(OC)c1OC (centres undefined) as the molecule, how does the GI50 (BT-549) read?
The GI50 was 2.98 µM.

What about the CC50 (BT-549; [3]) of the same molecule?
The CC50 was 29.5 µM.

And the GI50 (T47D)?
Its GI50 is 3.69 µM.

And the CC50 (T47D; [3])?
Its CC50 is over 100 µM.

And the GI50 (Hs-578T)?
Its GI50 is 8.88 µM.

What about the CC50 (Hs-578T; [3]) of the same molecule?
The CC50 was over 100 µM.

And the GI50 (MDA-MB-231)?
The GI50 was 3.14 µM.

What about the CC50 (MDA-MB-231; [3]) of the same molecule?
Its CC50 is 50.3 µM.

And the GI50 (DU-145)?
The GI50 was 3.6 µM.

What about the CC50 (DU-145; [3]) of the same molecule?
The CC50 was 34.8 µM.

What about the GI50 (PC-3) of the same molecule?
The GI50 was 3.63 µM.

What about the CC50 (PC-3; [3]) of the same molecule?
Its CC50 is over 100 µM.

What about the GI50 (SN12C) of the same molecule?
Its GI50 is 2.98 µM.

What about the CC50 (SN12C; [3]) of the same molecule?
Its CC50 is 78.1 µM.

And the GI50 (RXF 393)?
The GI50 was 1.81 µM.

And the CC50 (RXF 393; [3])?
The CC50 was 6.61 µM.

What about the GI50 (CAKI-1) of the same molecule?
Its GI50 is 2.15 µM.

And the CC50 (CAKI-1; [3])?
Its CC50 is 11.9 µM.

And the GI50 (ACHN)?
The GI50 was 1.93 µM.

What about the CC50 (ACHN; [3]) of the same molecule?
Its CC50 is 6.53 µM.

And the GI50 (A498)?
The GI50 was 9.58 µM.

What about the CC50 (A498; [3]) of the same molecule?
The CC50 was 46.7 µM.

And the GI50 (786-0)?
Its GI50 is 4.01 µM.

What about the CC50 (786-0; [3]) of the same molecule?
The CC50 was 87.3 µM.

What about the GI50 (SK-OV-3) of the same molecule?
The GI50 was 3.07 µM.

What about the CC50 (SK-OV-3; [3]) of the same molecule?
The CC50 was 51 µM.

And the GI50 (NCI/ADR-RES)?
The GI50 was 3.6 µM.

And the CC50 (NCI/ADR-RES; [3])?
The CC50 was over 100 µM.

And the GI50 (OVCAR-5)?
Its GI50 is 4.83 µM.

What about the CC50 (OVCAR-5; [3]) of the same molecule?
Its CC50 is 48.7 µM.

And the GI50 (OVCAR-4)?
Its GI50 is 4.99 µM.

What about the CC50 (OVCAR-4; [3]) of the same molecule?
The CC50 was 81 µM.

And the GI50 (OVCAR-3)?
Its GI50 is 2.64 µM.

What about the CC50 (OVCAR-3; [3]) of the same molecule?
Its CC50 is 23.4 µM.

And the GI50 (IGROV-1)?
The GI50 was 3.1 µM.

What about the CC50 (IGROV-1; [3]) of the same molecule?
Its CC50 is 85.8 µM.

And the GI50 (UACC-257)?
Its GI50 is 2.24 µM.

What about the CC50 (UACC-257; [3]) of the same molecule?
The CC50 was 29.1 µM.

And the GI50 (SK-MEL-5)?
Its GI50 is 2.83 µM.

And the CC50 (SK-MEL-5; [3])?
The CC50 was 34.7 µM.

And the GI50 (SK-MEL-28)?
The GI50 was 2.1 µM.

What about the CC50 (SK-MEL-28; [3]) of the same molecule?
The CC50 was 8.79 µM.

And the GI50 (SK-MEL-2)?
Its GI50 is 9.92 µM.

And the CC50 (SK-MEL-2; [3])?
Its CC50 is over 100 µM.

And the GI50 (SF-539)?
Its GI50 is 3.64 µM.

What about the CC50 (SF-539; [3]) of the same molecule?
The CC50 was over 100 µM.

And the GI50 (SNB-19)?
The GI50 was 8.65 µM.

What about the CC50 (SNB-19; [3]) of the same molecule?
Its CC50 is 50 µM.

What about the GI50 (SNB-75) of the same molecule?
Its GI50 is 7.36 µM.

And the CC50 (SNB-75; [3])?
Its CC50 is 57.8 µM.

And the GI50 (SW-620)?
Its GI50 is 2 µM.

What about the CC50 (SW-620; [3]) of the same molecule?
The CC50 was 9.69 µM.

What about the GI50 (SF-268) of the same molecule?
The GI50 was 1.66 µM.

What about the CC50 (SF-268; [3]) of the same molecule?
Its CC50 is 6.96 µM.

What about the GI50 (HT-29) of the same molecule?
Its GI50 is 2.35 µM.

What about the CC50 (HT-29; [3]) of the same molecule?
The CC50 was 16.3 µM.

And the GI50 (KM12)?
Its GI50 is 1.7 µM.

What about the CC50 (KM12; [3]) of the same molecule?
The CC50 was 6.08 µM.

And the GI50 (HCC 2998)?
Its GI50 is 1.91 µM.

And the CC50 (HCC 2998; [3])?
Its CC50 is 6.9 µM.

What about the GI50 (HCT-116) of the same molecule?
The GI50 was 1.66 µM.

What about the CC50 (HCT-116; [3]) of the same molecule?
The CC50 was 6.05 µM.

What about the GI50 (HCT-15) of the same molecule?
Its GI50 is 2.07 µM.

What about the CC50 (HCT-15; [3]) of the same molecule?
Its CC50 is 13.6 µM.

And the GI50 (NCI-H522)?
Its GI50 is 2.04 µM.

What about the CC50 (NCI-H522; [3]) of the same molecule?
Its CC50 is 15.5 µM.

What about the GI50 (COLO 205) of the same molecule?
The GI50 was 2.11 µM.

And the CC50 (COLO 205; [3])?
The CC50 was 12.6 µM.

And the GI50 (NCI-H460)?
The GI50 was 2.3 µM.

What about the CC50 (NCI-H460; [3]) of the same molecule?
The CC50 was over 100 µM.

And the GI50 (NCI-H226)?
The GI50 was 6.17 µM.

What about the CC50 (NCI-H226; [3]) of the same molecule?
The CC50 was 60.6 µM.

What about the GI50 (HOP-92) of the same molecule?
Its GI50 is 3.4 µM.

And the CC50 (HOP-92; [3])?
Its CC50 is 53.4 µM.

And the GI50 [1]?
The GI50 was 8.44 µM.

And the CC50 [1, 3]?
Its CC50 is over 100 µM.

What about the GI50 (HOP-62) of the same molecule?
Its GI50 is 2.46 µM.

And the CC50 (HOP-62; [3])?
The CC50 was 41.3 µM.

And the GI50 (SR)?
Its GI50 is 1.48 µM.

What about the CC50 (SR; [3]) of the same molecule?
The CC50 was over 100 µM.

And the GI50 (A549)?
The GI50 was 3.26 µM.

What about the CC50 (A549; [3]) of the same molecule?
The CC50 was 62.5 µM.

And the GI50 [2]?
Its GI50 is 2.26 µM.

What about the CC50 [2, 3] of the same molecule?
The CC50 was over 100 µM.
